Measured values as given in patent US20080095869A1, “Anticancer Treatment” (priority 2004, published 2008).
Where two headings read alike, the source gives them in different places. Values belong to the molecule of their own block, whether it stands above or below them.

Assays:
tNOX from HeLa = biological target: T1, tNOX from HeLa (Homo sapiens, UniProt Q16206); test: Spectrophotometric NADH oxidase assay, NOX activity from the HeLa cell surface; type: biochemical; details: for Response of NOX activity from the HeLa cell surface when combined with sulforaphane: sequential additions, preceding or following sulforaphane (FIGS. 7, 8)
T1 construct: The cells were thawed at room temperature, resuspended and incubated at 37° C. for 1 h to release the protein
T1 sequence (Q16206 1-610): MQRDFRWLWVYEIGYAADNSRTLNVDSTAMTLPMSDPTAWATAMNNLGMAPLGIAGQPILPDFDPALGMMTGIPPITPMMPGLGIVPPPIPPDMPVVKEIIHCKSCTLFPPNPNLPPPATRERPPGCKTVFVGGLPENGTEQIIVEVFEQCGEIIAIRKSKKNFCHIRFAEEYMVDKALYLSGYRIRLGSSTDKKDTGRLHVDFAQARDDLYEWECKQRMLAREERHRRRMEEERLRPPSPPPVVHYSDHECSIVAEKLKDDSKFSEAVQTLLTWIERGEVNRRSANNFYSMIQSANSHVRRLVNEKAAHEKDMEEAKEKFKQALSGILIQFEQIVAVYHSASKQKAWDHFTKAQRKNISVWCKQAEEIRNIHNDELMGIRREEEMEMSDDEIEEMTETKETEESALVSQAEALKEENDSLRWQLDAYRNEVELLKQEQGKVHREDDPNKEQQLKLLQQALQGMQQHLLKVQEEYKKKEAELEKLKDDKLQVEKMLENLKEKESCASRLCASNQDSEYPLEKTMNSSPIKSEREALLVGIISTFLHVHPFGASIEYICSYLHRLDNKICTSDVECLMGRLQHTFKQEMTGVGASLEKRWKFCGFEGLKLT
Description: HeLa S cells (grown in suspension) were collected by centrifugation and shipped frozen by a commercial supplier (Cellex Biosciences, Minneapolis, Minn.) In 0.1 m sodium acetate, pH 5, in a ratio of 1 mL packed cell volume to 1 mL acetate. The cells were thawed at room temperature, resuspended and incubated at 37° C. for 1 h to release the protein. The cells were removed by centrifugation at 37000 g for 60 min and the cell-free supernatants were refrozen and stored in 1 mL samples at −70° C.

[1] = biological target: tNOX of 4T1 mouse mammary cells (Mus musculus, UniProt Q8R0Z2); test: biochemical
Description: (§1) NADH oxidase activity was determined as the disappearance of NADH measured at 340 nm in a reaction mixture containing 25 mM Tris-Mes buffer (pH 7.2), 1 mM KCN to inhibit low levels of mitochondrial oxidase activity, and 150 ([…] NADH at 37° C. with temperature control (±0.5°) and stirring (14). Activity was measured using paired Hitachi U3210 spectrophotometers. Assays were initiated by addition of NADH. With plasma membranes and whole cells, assays were for 1 min and were repeated on the same sample every 1.5 min for the time indicated. A millimolar extinction coefficient of 6.22 was used to determine specific activity. Proteins were estimated by the bicinchoninic acid method with bovine serum albumin as standard.

HeLa cells = test: Growth of HeLa cells in culture (96-well crystal violet); type: cell-based; details: Homo sapiens, 48 and 72 h of treatment (FIG. 6), read-out: EC50 for inhibition of growth of HeLa cells
Description: HeLa (ATCC CCL-2) human cervical adenocarcinoma cells were cultured in minimal essential medium (Eagle), with 2 mM L-glutamine and Earle's balanced salt solution adjusted to contain 1.5 g/L sodium bicarbonate, 0.2 mM non-essential amino adds, 1.0 mM sodium pyruvate and supplemented with 10% bovine calf serum (heat-inactivated) plus 50 mg/L gentamycin sulfate (Sigma).
HeLa (5×10^4) or CHO (10^4) cells were distributed into each plate well (Costar tissue culture plate).

non-cancer MCF-10A cells = details: compared with cancer cells
Description: (§2) Growth was determined using a 96-well plate assay as described by Lin et al. (17). HeLa (5×10^4) or CHO (10^4) cells were distributed into each plate well (Costar tissue culture plate). The cells were grown at 37° C. for 24 h after which the substances to be evaluated were added followed by incubation for an additional 48 or 72 h as indicated. Medium was removed and the cells were washed with phosphate-buffered saline and then fixed by addition of […] 2.5% (v/v) glutaraldehyde for 0.5 h followed by a distilled water wash. The cells were stained with […] 1% aqueous crystal violet for 0.5 h, washed exhaustively with distilled water followed by […] 33% (v/v) acetic acid for 5 min. The absorbance was determined at 580 nm using an automated plate reader. Growth was determined according to the formula [(b−c)×100]/(a−c)] where a=absorbance of cells in medium without treatment b=cells in medium with treatment and c=medium alone (background).

[2] = system: CNOX activity of soybean plasma membranes; details: plasma membranes from dark-grown soybean hypocotyls, lack tNOX (FIG. 5)
Description: as §1

[3] = biological target: CNOX of non-cancer MCF-10A human mammary epithelia (Homo sapiens, UniProt Q8TC92); details: non-cancer cells which lack tNOX (FIG. 4)
Description: as §1

[4] = system: human mammary cancer (BT-20) cells; test: cells; details: BT-20, read-out: EC50 for inhibition of growth of BT-20 cells
Description: as §2

Chain of CNOX of non-cancer MCF-10A human mammary epithelia (Q8TC92 whole entry): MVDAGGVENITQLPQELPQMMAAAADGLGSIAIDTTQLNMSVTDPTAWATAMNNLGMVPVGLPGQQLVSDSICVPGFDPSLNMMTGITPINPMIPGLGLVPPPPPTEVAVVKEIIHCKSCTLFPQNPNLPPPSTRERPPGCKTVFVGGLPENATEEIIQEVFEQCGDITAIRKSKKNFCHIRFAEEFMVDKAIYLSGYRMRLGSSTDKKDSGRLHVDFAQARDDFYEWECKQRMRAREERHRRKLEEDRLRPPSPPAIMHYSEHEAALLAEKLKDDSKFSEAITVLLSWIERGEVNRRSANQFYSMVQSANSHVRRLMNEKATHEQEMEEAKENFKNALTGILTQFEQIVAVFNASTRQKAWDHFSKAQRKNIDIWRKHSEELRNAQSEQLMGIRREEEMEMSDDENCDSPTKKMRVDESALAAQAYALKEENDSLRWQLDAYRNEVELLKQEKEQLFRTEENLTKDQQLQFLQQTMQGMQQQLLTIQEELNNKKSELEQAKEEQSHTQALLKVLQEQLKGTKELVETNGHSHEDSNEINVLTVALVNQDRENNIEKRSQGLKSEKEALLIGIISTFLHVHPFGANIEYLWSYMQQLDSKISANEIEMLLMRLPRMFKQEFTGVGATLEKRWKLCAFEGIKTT
Chain of tNOX of 4T1 mouse mammary cells (Q8R0Z2 whole entry): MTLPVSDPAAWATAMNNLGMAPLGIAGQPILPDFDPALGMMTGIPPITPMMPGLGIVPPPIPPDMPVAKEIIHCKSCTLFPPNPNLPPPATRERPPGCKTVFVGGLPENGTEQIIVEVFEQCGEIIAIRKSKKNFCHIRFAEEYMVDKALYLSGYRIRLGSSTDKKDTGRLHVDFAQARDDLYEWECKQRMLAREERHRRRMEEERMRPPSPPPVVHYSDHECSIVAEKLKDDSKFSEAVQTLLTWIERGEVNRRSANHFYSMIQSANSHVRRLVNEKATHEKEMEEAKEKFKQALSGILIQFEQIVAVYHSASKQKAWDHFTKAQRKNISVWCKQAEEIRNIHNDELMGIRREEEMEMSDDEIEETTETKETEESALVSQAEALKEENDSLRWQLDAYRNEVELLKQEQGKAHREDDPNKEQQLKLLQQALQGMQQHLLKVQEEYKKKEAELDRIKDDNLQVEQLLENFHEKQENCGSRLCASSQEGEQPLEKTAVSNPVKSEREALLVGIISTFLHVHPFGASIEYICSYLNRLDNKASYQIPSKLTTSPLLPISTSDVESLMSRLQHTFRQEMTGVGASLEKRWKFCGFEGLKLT

EC50 (tNOX from HeLa; NOX activity from HeLa cell surface (FIGS. 1 and 2)): ~1 mM
EC50 [1]: ~1 mM
EC50 (HeLa cells): 0.1 to 1 mM
Effect on CNOX (NOX activity) of MCF-10A human mammary epithelia [3]: unaffected
Effect on CNOX (NOX activity) of MCF-10A human mammary epithelia ([3]; listed as Sulforaphane): does not inhibit
EC50 [4]: 0.1 to 1 mM
Molecule: C[S@@+]([O-])CCCCN=C=S [L-Sulforaphane]
Inhibition of growth of non-cancer MCF-10A cells (non-cancer MCF-10A cells): inhibited to nearly the same extent as the cancer cells
Effect on CNOX activity of soybean plasma membranes [2]: unaffected
Effect on CNOX activity of soybean plasma membranes ([2]; listed as Sulforaphane): does not inhibit

Molecule: (−)-epigallocatechin gallate [EGCg]
Response of NOX activity from the HeLa cell surface when combined with sulforaphane (tNOX from HeLa): antagonistic

Response of NOX activity from the HeLa cell surface when combined with sulforaphane (tNOX from HeLa): beneficial response
Molecule: COc1cc(CNC(=O)CCCC/C=C/C(C)C)ccc1O [capsaicin, 8-methyl-N-vanillyl-6-noneamide]

Response of NOX activity from the HeLa cell surface when combined with sulforaphane (tNOX from HeLa): beneficial response
Molecule: COc1cc(CN)ccc1O [vanillylamine]
